Measured values as given in PMC7915765, “Biochemical Characterization, Specificity and Inhibition Studies of HTLV-1, HTLV-2, and HTLV-3 Proteases” (Life, 2021).
*1 amine or outer side, *2 acyl side, *3 side chain or, on linkers, in order; H or OH if unused. Where a SMILES comes first, the peptide text is derived from it. Side-chain parts run from the residue outwards. [ ]: non-standard residue; d: D form. LeuΨ(CH2N)Pro = CC(C)C[C@@H](CN1CCC[C@H]1C(=O)[*:2])N[*:1]; X1 = CC(C)C[C@@H](CN([C@H](C(=O)[*:2])C(C)C)[*:1])N[*:3]

B1: ASPRV1: human retroviral-like aspartic protease 1 (literature) (protein, UniProt Q53RT3 191-326, looked up)
Retroviral-like aspartic …: SMGKGYYLKGKIGKVPVRFLVDSGAQVSVVHPNLWEEVTDGDLDTLQPFENVVKVANGAEMKILGVWDTAVSLGKLKLKAQFLVANASAEEAIIGTDVLQDHNAILDFEHRTCTLKGKKFRLLPVGGSLEDEFDLE

Columns and labels:
[1] = biological target: T1, HTLV-3 PR (Human T-cell leukemia virus 3, UniProt Q4U0X6); assay: Inhibition study with HIV-1 PIs, HTLV-3 PR; type: biochemical; parameters: made in house; host or cells: E. coli BL21(DE3), pET11a; settings: inhibitor 1 µM final; for loss of activity: substrate HTLV-3 MA/CA 0.40–0.43 mM, DMSO control = 100%, n = 2
T1 sequence (Q4U0X6 431-553): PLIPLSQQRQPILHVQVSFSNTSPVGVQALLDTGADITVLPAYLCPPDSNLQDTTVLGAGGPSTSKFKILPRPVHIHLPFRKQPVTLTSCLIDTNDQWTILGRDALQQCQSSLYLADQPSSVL
Experimental: (§1) The IB-268 (KTKVL-r-VVQPK) and IB-269 (APQVL-r-PVMHP) reduced peptide bond (-r-)-containing inhibitors, which were synthesized by Dr. Ivo Blaha (Ferring Leciva, Prague, Czech Republic).
(§2) The reaction mixtures were prepared to contain 4.8 µL of substrate (in 0.40–0.43 mM final concentration), 0.2 µL of inhibitor, 5 µL of the enzyme, and 10 µL of a 2× incubation buffer. The substrates representing HTLV-2 and HTLV-3 MA/CA cleavage sites were used for HTLV-2 and HTLV-3 PRs, respectively. In the case of HIV-1 PIs, we applied 100 µM inhibitor stocks, while 0.5–100 µM stocks of IB-268 and IB-269 were used for screening. The inhibitors were dissolved in DMSO. Therefore, 0.2 µL of DMSO was added to the control samples.

[2] = biological target: T2, HTLV-2 PR (Human T-cell leukemia virus 2, UniProt P03363); assay: Inhibition study with HIV-1 PIs, HTLV-2 PR; type: biochemical, human T-cell leukemia virus type 2; parameters: made in house; host or cells: E. coli BL21(DE3); settings: inhibitor 1 µM final; for loss of activity: substrate HTLV-2 MA/CA 0.40–0.43 mM, DMSO control = 100%, n = 2
T2 sequence (P03363 447-571): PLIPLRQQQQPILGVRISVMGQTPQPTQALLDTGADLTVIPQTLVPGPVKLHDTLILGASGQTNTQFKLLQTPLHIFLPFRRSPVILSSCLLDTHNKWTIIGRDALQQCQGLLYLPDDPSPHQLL
Experimental: The inhibitors were dissolved in DMSO.

[3] = tested on: ATLL cells; parameters: method as in PMID 16174765; settings: ATLL cells ex vivo; ref [54]; cited from earlier work
[4] = tested on: HTLV-1 PR; assay: Inhibition study with HIV-1 PIs, HTLV-1 PR; type: biochemical, human T-cell leukemia virus type 1; settings: inhibitor 1 µM final
Experimental: as §1, §2

[5] = tested on: NF-κB transcriptional activation; parameters: method as in PMID 18316517; settings: ATLL cells; ref [55]; cited from earlier work
[6] = biological target: T2, HTLV-2 PR; assay: biochemical
Experimental: (§3) The reaction mixtures were prepared to contain 4.8 µL of substrate (in 0.40–0.43 mM final concentration), 0.2 µL of inhibitor, 5 µL of the enzyme, and 10 µL of a 2× incubation buffer. The substrates representing HTLV-2 and HTLV-3 MA/CA cleavage sites were used for HTLV-2 and HTLV-3 PRs, respectively. […] The inhibitors were dissolved in DMSO. Therefore, 0.2 µL of DMSO was added to the control samples.

[7] = biological target: T1, HTLV-3 PR; assay: biochemical
Experimental: as §3

[8] = tested on: HTLV-1 PR; parameters: method as in 2 sources, ref [41] = [41]; PMID 15158589; doi:10.1016/j.jviromet.2004.03.001; 41. Bagossi P. Kádas J. Miklóssy G. Boross P. Weber I.T. Tözsér J. Development of a microtiter plate fluorescent assay for inhibition studies on the HTLV-1 and HIV-1 proteinases J. Virol. Methods 2004 ||| ref [28] = [28]; PMID 15102858; doi:10.1074/jbc.M401868200; 28. Kádas J. Weber I.T. Bagossi P. Miklóssy G. Boross P. Oroszlan S. Tözsér J. Narrow substrate specificity and sensitivity toward ligand-binding site mutations of human T-cell leukemia virus type 1 p; settings: ref [28]; cited from earlier work
From the text: (a) Comparison of relative activities determined in the presence of HIV-1 PIs applied in a 1-µM final concentration. For control measurements, reaction mixtures contained no inhibitor. Activity determined in the presence of DMSO was considered to be 100%. Error bars represent SD (n = 2). […] We repeated these experiments in our system for HTLV-2 and HTLV-3 PRs.

[9] = ASPRV1; ref [51]; cited from earlier work
Experimental: The dependence of enzyme activity on pH was studied in a 4.5–8.0 range. […] Our results imply that the optimal pH of HTLV-1 PR is higher than it was determined previously by Ha et al. (pH 5.2–5.3). The optimal pH determined for HTLV PRs is similar to the slightly acidic pH optimum of retroviral and retroviral-like proteases, including the HIV-1 PR (pH 4.0–6.0 range), the BLV PR (pH 4.0–6.5 range), ...

Row | Molecule | inhibitory effect (in words) [1] | loss of activity [1] | inhibitory effect (in words) [2] | loss of activity [2] | inhibitory effect (in words) [4] | Ki [6] | Ki [7] | further results
1 | CC(C)c1nc(CN(C)C(=O)N[C@H](C(=O)N[C@@H](Cc2ccccc2)C[C@H](O)[C@H](Cc2ccccc2)NC(=O)OCc2cncs2)C(C)C)cs1 [ritonavir] | did not inhibit | < 50% | did not inhibit | < 50% | not an effective inhibitor | – | – | anti-leukemic activity [3]: anti-leukemic activity against ATLL cells ex vivo; inhibition of NF-κB transcriptional activation [5]: ritonavir-dependent inhibition of NF-κB transcriptional activation
2 | CC(C)C[C@@H](CN[C@H](C(=O)N[C@H](C(=O)N[C@@H](CCC(N)=O)C(=O)N1CCC[C@H]1C(=O)N[C@@H](CCCCN)C(=O)O)C(C)C)C(C)C)NC(=O)[C@@H](NC(=O)[C@H](CCCCN)NC(=O)[C@@H](NC(=O)[C@@H](N)CCCCN)[C@@H](C)O)C(C)C [IB-268] (H-[X1]([Val-Lys-Thr-Lys])VQPK-OH) | – | – | – | – | – | 37 nM | 214 nM | –
3 | CC(C)(C)NC(=O)[C@@H]1CN(Cc2cccnc2)CCN1C[C@@H](O)C[C@@H](Cc1ccccc1)C(=O)N[C@H]1c2ccccc2C[C@H]1O [indinavir] | highest inhibition | < 50% | highest inhibition | < 50% | highest inhibition | – | – | inhibition of wild-type HTLV-1 PR (in words) [8]: relatively good inhibitors; decrease of HTLV-1 PR activity ([4]; DMSO control = 100%, n = 2): ~ 50%
4 | CSCC[C@H](NC(=O)[C@@H](NC(=O)[C@@H]1CCCN1C[C@H](CC(C)C)NC(=O)[C@@H](NC(=O)[C@H](CCC(N)=O)NC(=O)[C@@H]1CCCN1C(=O)[C@H](C)N)C(C)C)C(C)C)C(=O)N[C@@H](Cc1c[nH]cn1)C(=O)N1CCC[C@H]1C(=O)O [IB-269] (H-APQV[LeuΨ(CH2N)Pro]VMHP-OH) | – | – | – | – | – | 12 nM | 14 nM | –
5 | B1 | – | – | – | – | – | – | – | pH optimum [9]: 6.27 ± 0.02
